Experimental data from ChEMBL document CHEMBL4376853, “Synthesis and structure-activity relationship studies of α-naphthoflavone derivatives as CYP1B1 inhibitors” (Eur J Med Chem, 2020).

What was measured:
[1] = target: T1, Cytochrome P450 1A1 (Homo sapiens, UniProt P04798); test: Inhibition of human recombinant CYP1A1 using 7-ethoxyresorufin as substrate in presence of glucose-6-phosphate, glucose-6-phosphate dehydrogenase and NADPH-generating system incubated for 15 mins by fluorometry; format: ADME
T1 sequence (P04798 whole entry): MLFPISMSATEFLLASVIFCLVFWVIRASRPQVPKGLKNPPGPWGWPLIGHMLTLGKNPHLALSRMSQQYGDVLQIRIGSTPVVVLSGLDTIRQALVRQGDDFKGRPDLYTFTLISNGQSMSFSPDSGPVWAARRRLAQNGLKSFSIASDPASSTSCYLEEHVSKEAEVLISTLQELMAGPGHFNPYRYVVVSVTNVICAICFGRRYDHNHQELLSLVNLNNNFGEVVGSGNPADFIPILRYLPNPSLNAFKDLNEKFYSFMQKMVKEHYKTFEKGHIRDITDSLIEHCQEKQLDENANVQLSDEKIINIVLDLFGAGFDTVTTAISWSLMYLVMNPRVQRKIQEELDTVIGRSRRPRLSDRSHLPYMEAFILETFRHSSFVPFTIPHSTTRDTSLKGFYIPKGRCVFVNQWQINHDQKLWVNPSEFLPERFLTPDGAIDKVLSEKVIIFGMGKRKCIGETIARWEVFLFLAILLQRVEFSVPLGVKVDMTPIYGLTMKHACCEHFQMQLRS

[2] = organism: Homo sapiens; test: Selectivity index, ratio of IC50 for human recombinant CYP1A2 to IC50 for human recombinant CYP1B1 using 7-ethoxyresorufin as substrate in presence of glucose-6-phosphate, glucose-6-phosphate dehydrogenase and NADPH-generating system by fluorometry
[3] = organism: Homo sapiens; test: Selectivity index, ratio of IC50 for human recombinant CYP1A1 to IC50 for human recombinant CYP1B1 using 7-ethoxyresorufin as substrate in presence of glucose-6-phosphate, glucose-6-phosphate dehydrogenase and NADPH-generating system by fluorometry
[4] = target: T2, Cytochrome P450 1A2 (Homo sapiens, UniProt P05177); test: Inhibition of human recombinant CYP1A2 using 7-ethoxyresorufin as substrate in presence of glucose-6-phosphate, glucose-6-phosphate dehydrogenase and NADPH-generating system incubated for 50 mins by fluorometry; format: ADME
T2 sequence (P05177 whole entry): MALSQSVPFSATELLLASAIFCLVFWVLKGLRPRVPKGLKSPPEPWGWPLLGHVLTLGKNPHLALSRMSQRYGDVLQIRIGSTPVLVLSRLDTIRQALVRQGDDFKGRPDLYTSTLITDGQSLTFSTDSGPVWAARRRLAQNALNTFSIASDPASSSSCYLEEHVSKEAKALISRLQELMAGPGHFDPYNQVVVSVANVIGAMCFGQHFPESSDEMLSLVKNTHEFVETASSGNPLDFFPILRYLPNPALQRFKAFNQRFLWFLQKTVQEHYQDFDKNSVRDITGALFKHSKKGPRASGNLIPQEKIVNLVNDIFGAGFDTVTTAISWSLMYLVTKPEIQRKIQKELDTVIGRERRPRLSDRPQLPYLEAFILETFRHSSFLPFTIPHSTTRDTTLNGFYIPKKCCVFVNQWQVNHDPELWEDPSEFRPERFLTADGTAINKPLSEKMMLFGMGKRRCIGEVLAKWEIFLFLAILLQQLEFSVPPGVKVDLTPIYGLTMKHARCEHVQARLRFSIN

[5] = target: T3, Cytochrome P450 1B1 (Homo sapiens, UniProt Q16678); test: Potency index, ratio of IC50 for ANF to IC50 for test compound for inhibition of human recombinant CYP1B1 using 7-ethoxyresorufin as substrate in presence of glucose-6-phosphate, glucose-6-phosphate dehydrogenase and NADPH-generating system incubated for 35 mins by fluorometry; conditions: for selectivity ratio at 35 min: read-out: Ratio IC50
T3 sequence (Q16678 whole entry): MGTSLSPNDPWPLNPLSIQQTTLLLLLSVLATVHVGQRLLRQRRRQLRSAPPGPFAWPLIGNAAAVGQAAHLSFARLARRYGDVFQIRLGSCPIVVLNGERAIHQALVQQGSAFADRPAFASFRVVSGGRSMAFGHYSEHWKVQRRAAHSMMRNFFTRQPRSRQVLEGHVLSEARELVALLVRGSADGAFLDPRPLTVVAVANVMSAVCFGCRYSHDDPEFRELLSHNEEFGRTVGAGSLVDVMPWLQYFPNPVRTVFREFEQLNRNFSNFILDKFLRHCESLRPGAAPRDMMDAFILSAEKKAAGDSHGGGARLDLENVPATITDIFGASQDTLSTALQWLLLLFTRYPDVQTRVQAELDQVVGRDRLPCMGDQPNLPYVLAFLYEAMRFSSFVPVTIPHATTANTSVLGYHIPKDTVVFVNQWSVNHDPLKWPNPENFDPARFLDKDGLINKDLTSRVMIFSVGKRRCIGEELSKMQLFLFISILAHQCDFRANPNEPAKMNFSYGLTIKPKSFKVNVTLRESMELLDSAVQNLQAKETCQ

[6] = target: T3, Cytochrome P450 1B1; test: Inhibition of human recombinant CYP1B1 using 7-ethoxyresorufin as substrate in presence of glucose-6-phosphate, glucose-6-phosphate dehydrogenase and NADPH-generating system incubated for 35 mins by fluorometry
[7] = Aqueous solubility of the compound; format: physicochemical; conditions: buffer

SMILES | IC50 [1] [nM] | Ratio IC50 [2] | Ratio IC50 [3] | IC50 [4] [nM] | relative potency vs ANF (IC50 ratio) at 35 min [5] | IC50 [6] [nM] | selectivity ratio at 35 min [5] | solubility [7] [mg/mL]
O=c1cc(-c2cccc(Cl)c2)oc2c1ccc1ccccc12 | 5.2 | 150 | 10.6 | 73.6 | 12 | 0.49 | – | –
CN1CCN(c2cc(Cl)cc(-c3cc(=O)c4ccc5ccccc5c4o3)c2)CC1 | 37.9 | – | 0.8 | > 1000 | – | 47.7 | 0.12 | –
O=c1cc(-c2cccc(N3CCOCC3)c2)oc2c1ccc1ccccc12 | 30.9 | 159 | 15.5 | 318 | – | 2 | 3 | –
COc1ccc(-c2cc(=O)c3ccc4ccccc4c3o2)cc1 | 30.9 | 13.5 | 4.2 | 98.2 | – | 7.3 | – | –
COc1cc(-c2cc(=O)c3ccc4ccccc4c3o2)cc(OC)c1OC | 3 | > 196 | 0.6 | > 1000 | – | 5.1 | – | –
S=c1cc(-c2ccccc2)oc2c1ccc1ccccc12 | 65.4 | 22.9 | 8.4 | 179 | – | 7.8 | – | –
O=c1cc(-c2cc(Cl)cc(Cl)c2)oc2c1ccc1ccccc12 | 25.5 | 37.4 | 6.1 | 157 | – | 4.2 | – | –
O=c1cc(-c2cccc(F)c2)oc2c1ccc1ccccc12 | 16.7 | 28.3 | 7.6 | 62.2 | – | 2.2 | – | –
COc1cccc(-c2cc(=S)c3ccc4ccccc4c3o2)c1 | 72.8 | 33.5 | 8 | 305 | – | 9.1 | – | –
O/N=c1\cc(-c2ccccc2)oc2c1ccc1ccccc12 | 32.1 | 23.3 | 10 | 74.6 | – | 3.2 | – | –
O=c1cc(-c2ccccc2Cl)sc2c1ccc1ccccc12 | 45.8 | > 11.1 | 0.5 | > 1000 | – | 89.7 | – | –
O=c1cc(-c2ccccc2F)sc2c1ccc1ccccc12 | 84.6 | 5.6 | 0.8 | 582 | – | 104 | – | –
COc1cc(-c2cc(=S)c3ccc4ccccc4c3o2)cc(OC)c1OC | 28.2 | > 53.2 | 1.5 | > 1000 | – | 18.8 | – | –
O=c1cc(-c2ccc(Cl)cc2)oc2c1ccc1ccccc12 | 4.3 | 2.5 | 1 | 10.6 | – | 4.2 | – | –
Fc1ccc(-c2cc(=S)c3ccc4ccccc4c3o2)cc1 | 12.3 | 3.2 | 0.9 | 42.8 | – | 13.3 | – | –
Fc1ccccc1-c1cc(=S)c2ccc3ccccc3c2o1 | 31.9 | 4.9 | 3 | 51.8 | – | 10.6 | – | –
CN1CCN(c2ccc(-c3cc(=O)c4ccc5ccccc5c4o3)cc2)CC1 | 153 | – | 2.4 | > 1000 | – | 63.8 | – | > 20
O=c1cc(-c2ccccc2Cl)oc2c1ccc1ccccc12 | 228 | 5.2 | 10.6 | 113 | – | 21.6 | – | –
O=c1cc(-c2ccncc2)oc2c1ccc1ccccc12 | 18.7 | 3.9 | 2 | 36.4 | – | 9.3 | – | –
CN(C)c1cccc(-c2cc(=O)c3ccc4ccccc4c3o2)c1 | 9.6 | 44.7 | 2.3 | 183 | – | 4.1 | – | –
CN1CCN(c2cccc(-c3cc(=O)c4ccc5ccccc5c4o3)c2)CC1 | 34.6 | 31 | 1.4 | 762 | – | 24.6 | – | –
S=c1cc(-c2cccc(Cl)c2)oc2c1ccc1ccccc12 | 31.7 | 32.4 | 3.4 | 304 | – | 9.4 | – | –
O=c1cc(-c2cccc(C(F)(F)F)c2)oc2c1ccc1ccccc12 | 16.7 | 181 | 32.1 | 94.2 | – | 0.52 | 11.3 | –
S=c1cc(-c2ccc(Cl)cc2)oc2c1ccc1ccccc12 | 9.6 | 33.3 | 6 | 53.2 | 3 | 1.6 | – | –
Fc1cccc(-c2cc(=S)c3ccc4ccccc4c3o2)c1 | 25.1 | 26.8 | 5 | 134 | – | 5 | – | –
